# Source: PubChem BioAssay (NCI)
#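 Following 48 hours of exposure in 96-well plates, responses at five concentrations were used to interpolate endpoints linearly. GI50: concentration for 50% inhibition of growth. TGI marks complete inhibition of growth.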
# How the values were obtained:
# Test in all cases: NCI anticancer screen, dose series, 48 h
# [1] = system: SR leukemia
# [2] = system: MCF7 breast
# [3] = system: CCRF-CEM leukemia
# [4] = system: K-562 leukemia
# [5] = system: SK-OV-3 ovarian
# [6] = system: HCT-116 colon
# [7] = system: LOX IMVI melanoma
# [8] = system: SW-620 colon
# [9] = system: NCI-H23 lung
# [10] = system: OVCAR-8 ovarian
# [11] = system: NCI-H460 lung
# [12] = system: RPMI-8226 leukemia
# [13] = system: HS 578T breast
# [14] = system: OVCAR-4 ovarian
# [15] = system: COLO 205 colon
# [16] = system: SNB-19 CNS
# [17] = system: 786-0 renal
# [18] = system: OVCAR-5 ovarian
# [19] = system: MDA-MB-435
# [20] = system: SK-MEL-5 melanoma
# [21] = system: SN12C renal
# [22] = system: EKVX NSCLC
# [23] = system: UACC-257 melanoma
# [24] = system: HCT-15 colon
# [25] = system: RXF 393 renal
# [26] = system: OVCAR-3 ovarian
# [27] = system: A549 NSCLC
# [28] = system: HL-60(TB) leukemia
# [29] = system: PC-3 prostate
# [30] = system: A498 renal
# [31] = system: NCI/ADR-RES ovarian
# [32] = system: CAKI-1 renal
# [33] = system: HT29 colon
# [34] = system: DU-145 prostate
# [35] = system: ACHN renal
# [36] = system: U251 CNS
# [37] = system: KM12 colon
# [38] = system: UO-31 renal
# [39] = system: T-47D breast
# [40] = system: SF-268 CNS
# [41] = system: HCC-2998 colon
# [42] = system: MOLT-4 leukemia
# [43] = system: SNB-75 CNS
# [44] = system: UACC-62 melanoma
# [45] = system: NCI-H226 lung
# [46] = system: HOP-62 NSCLC
# [47] = system: M14 melanoma
# [48] = system: HOP-92 NSCLC
# [49] = system: SF-295 CNS
# [50] = system: SF-539 CNS
# [51] = system: MALME-3M melanoma
# [52] = system: IGROV1 ovarian
# [53] = system: BT-549 breast
# [54] = system: MDA-MB-231 breast
# [55] = system: SK-MEL-28 melanoma
# [56] = system: SK-MEL-2 melanoma
# [57] = system: NCI-H522 lung
# [58] = system: TK-10 renal
compound,measurement,setting,value
COc1ccc(C2C(C#N)=C(N)Oc3c2sc2c(C)cccc32)cc1 (configuration not stated),GI50,[1],0.215 µM
same,TGI,[1],15 µM
same,GI50,[2],0.322 µM
same,TGI,[2],12.2 µM
same,GI50,[3],0.341 µM
same,TGI,[3],> 64.8 µM
same,GI50,[4],0.119 µM
same,TGI,[4],> 100 µM
same,GI50,[5],0.613 µM
same,TGI,[5],41.7 µM
same,GI50,[6],0.362 µM
same,TGI,[6],6.96 µM
same,GI50,[7],0.592 µM
same,TGI,[7],10.8 µM
same,GI50,[8],0.441 µM
same,TGI,[8],16.2 µM
same,GI50,[9],0.474 µM
same,TGI,[9],12.8 µM
same,GI50,[10],0.547 µM
same,TGI,[10],17.4 µM
same,GI50,[11],0.384 µM
same,TGI,[11],10.6 µM
same,GI50,[12],0.384 µM
same,TGI,[12],5.53 µM
same,GI50,[13],0.3 µM
same,TGI,[13],2.28 µM
same,GI50,[14],2.24 µM
same,TGI,[14],22.5 µM
same,GI50,[15],0.933 µM
same,TGI,[15],8.68 µM
same,GI50,[16],0.52 µM
same,TGI,[16],15.2 µM
same,GI50,[17],0.621 µM
same,TGI,[17],14.6 µM
same,GI50,[18],0.636 µM
same,TGI,[18],14.2 µM
same,GI50,[19],0.188 µM
same,TGI,[19],0.441 µM
same,GI50,[20],0.427 µM
same,TGI,[20],13.2 µM
same,GI50,[21],0.578 µM
same,TGI,[21],11.3 µM
same,GI50,[22],0.677 µM
same,TGI,[22],21.3 µM
same,GI50,[23],14.3 µM
same,TGI,[23],42.1 µM
same,GI50,[24],0.408 µM
same,TGI,[24],7.32 µM
same,GI50,[25],0.234 µM
same,TGI,[25],0.628 µM
same,GI50,[26],0.414 µM
same,TGI,[26],12.8 µM
same,GI50,[27],0.724 µM
same,TGI,[27],21.6 µM
same,GI50,[28],0.23 µM
same,TGI,[28],1.06 µM
same,GI50,[29],0.346 µM
same,TGI,[29],13 µM
same,GI50,[30],0.199 µM
same,TGI,[30],0.772 µM
same,GI50,[31],0.332 µM
same,TGI,[31],5.75 µM
same,GI50,[32],0.381 µM
same,TGI,[32],16.7 µM
same,GI50,[33],0.816 µM
same,TGI,[33],12.7 µM
same,GI50,[34],0.596 µM
same,TGI,[34],18.6 µM
same,GI50,[35],0.757 µM
same,TGI,[35],14.7 µM
same,GI50,[36],0.489 µM
same,TGI,[36],16 µM
same,GI50,[37],0.46 µM
same,TGI,[37],14.5 µM
same,GI50,[38],0.34 µM
same,TGI,[38],13.5 µM
same,GI50,[39],0.552 µM
same,TGI,[39],43.7 µM
same,GI50,[40],1.2 µM
same,TGI,[40],21.6 µM
same,GI50,[41],1.03 µM
same,TGI,[41],7.39 µM
same,GI50,[42],0.524 µM
same,TGI,[42],9.43 µM
same,GI50,[43],0.221 µM
same,TGI,[43],0.709 µM
same,GI50,[44],0.375 µM
same,TGI,[44],11.9 µM
same,GI50,[45],0.59 µM
same,TGI,[45],15.8 µM
same,GI50,[46],0.544 µM
same,TGI,[46],20.8 µM
same,GI50,[47],0.304 µM
same,TGI,[47],13.4 µM
same,GI50,[48],1.13 µM
same,TGI,[48],11.1 µM
same,GI50,[49],0.293 µM
same,TGI,[49],2.4 µM
same,GI50,[50],0.297 µM
same,TGI,[50],1.24 µM
same,GI50,[51],0.431 µM
same,TGI,[51],21 µM
same,GI50,[52],0.449 µM
same,TGI,[52],14.5 µM
same,GI50,[53],0.956 µM
same,TGI,[53],7.83 µM
same,GI50,[54],1.22 µM
same,TGI,[54],10.6 µM
same,GI50,[55],3.83 µM
same,TGI,[55],21.7 µM
same,GI50,[56],3.33 µM
same,TGI,[56],26.5 µM
same,GI50,[57],0.369 µM
same,TGI,[57],6.01 µM
same,GI50,[58],9.49 µM
same,TGI,[58],34.2 µM
COc1cc(C(=O)/C=C/c2c(C)n([O-])c3ccc(C(F)(F)F)cc3[n+]2=O)cc(OC)c1OC,GI50,[1],2.67 µM
same,TGI,[1],> 100 µM
same,GI50,[2],4.26 µM
same,TGI,[2],17.3 µM
same,GI50,[3],0.564 µM
same,TGI,[3],> 100 µM
same,GI50,[4],1.65 µM
same,TGI,[4],5.85 µM
same,GI50,[5],27.1 µM
same,TGI,[5],> 100 µM
same,GI50,[6],0.83 µM
same,TGI,[6],2.51 µM
same,GI50,[7],0.77 µM
same,TGI,[7],2.66 µM
same,GI50,[8],0.68 µM
same,TGI,[8],2.04 µM
same,GI50,[9],3.8 µM
same,TGI,[9],15.1 µM
same,GI50,[10],2.99 µM
same,TGI,[10],> 31.1 µM
same,GI50,[11],10.7 µM
same,TGI,[11],29.1 µM
same,GI50,[12],5.23 µM
same,TGI,[12],48.9 µM
same,GI50,[13],7.55 µM
same,TGI,[13],> 77.8 µM
same,GI50,[14],7.1 µM
same,TGI,[14],> 100 µM
same,GI50,[15],1.43 µM
same,TGI,[15],2.88 µM
same,GI50,[16],36.1 µM
same,TGI,[16],> 100 µM
same,GI50,[17],1.96 µM
same,TGI,[17],4.31 µM
same,GI50,[18],15.2 µM
same,TGI,[18],> 83.4 µM
same,GI50,[19],3.15 µM
same,TGI,[19],15.8 µM
same,GI50,[20],17.6 µM
same,TGI,[20],> 57.3 µM
same,GI50,[21],6.89 µM
same,TGI,[21],> 100 µM
same,GI50,[22],21.4 µM
same,TGI,[22],> 100 µM
same,GI50,[23],1.78 µM
same,TGI,[23],3.94 µM
same,GI50,[24],3.55 µM
same,TGI,[24],24.2 µM
same,GI50,[25],1.44 µM
same,TGI,[25],2.86 µM
same,GI50,[26],1.37 µM
same,TGI,[26],3.07 µM
same,GI50,[27],19.8 µM
same,TGI,[27],> 93.3 µM
same,GI50,[28],2.92 µM
same,TGI,[28],7.89 µM
same,GI50,[29],6.41 µM
same,TGI,[29],> 100 µM
same,GI50,[30],14.5 µM
same,TGI,[30],51.7 µM
same,GI50,[31],3.54 µM
same,TGI,[31],97.7 µM
same,GI50,[32],3.32 µM
same,TGI,[32],> 38.1 µM
same,GI50,[33],1.69 µM
same,TGI,[33],3.99 µM
same,GI50,[34],4.11 µM
same,TGI,[34],14.3 µM
same,GI50,[35],1.49 µM
same,TGI,[35],3.82 µM
same,GI50,[36],8.83 µM
same,TGI,[36],24.1 µM
same,GI50,[37],13.5 µM
same,TGI,[37],34.3 µM
same,GI50,[38],1.45 µM
same,TGI,[38],3.51 µM
same,GI50,[39],2.15 µM
same,TGI,[39],7.83 µM
same,GI50,[40],12.8 µM
same,TGI,[40],37.4 µM
same,GI50,[41],15.5 µM
same,TGI,[41],35.7 µM
same,GI50,[42],1.75 µM
same,TGI,[42],5.11 µM
same,GI50,[43],10.9 µM
same,TGI,[43],24.6 µM
same,GI50,[44],3.62 µM
same,TGI,[44],13.8 µM
same,GI50,[45],15.1 µM
same,TGI,[45],> 57.7 µM
same,GI50,[46],25.2 µM
same,TGI,[46],> 100 µM
same,GI50,[47],2.42 µM
same,TGI,[47],8.46 µM
same,GI50,[48],3.04 µM
same,TGI,[48],21.3 µM
same,GI50,[49],26.2 µM
same,TGI,[49],> 90.7 µM
same,GI50,[50],3.7 µM
same,TGI,[50],15 µM
same,GI50,[51],1.74 µM
same,TGI,[51],4.19 µM
same,GI50,[52],7.54 µM
same,TGI,[52],48.4 µM
same,GI50,[53],8.34 µM
same,TGI,[53],25.6 µM
same,GI50,[54],8.54 µM
same,TGI,[54],> 79.3 µM
same,GI50,[55],7.62 µM
same,TGI,[55],23.6 µM
same,GI50,[56],4 µM
same,TGI,[56],13.5 µM
same,GI50,[57],0.232 µM
same,TGI,[57],0.784 µM
same,GI50,[58],1.41 µM
same,TGI,[58],2.82 µM
